Measured values taken from patent USRE47785E1, “7-{(3S,4S)-3-[(cyclopropylamino)methyl]-4-fluoropyrrolidine-1-yl}-6-fluoro-1-(2-fluoroethyl)-8-methoxy-4-oxo-1,4-dihydroquinoline-3-carboxylic acid crystal” (KYORIN PHARMACEUTICAL CO., LTD., priority 2011, dated 2019).
Read-outs that look alike come from different tables or passages of the source.

Assays:
[1] = Test of solubility in water
[2] = Storage stability test (40° C., 75% RH, open or closed, opaque containers, HPLC); conditions: for amount of remaining unaltered crystals, INITIAL: 40° C./75% RH storage test
Excerpt: HPLC conditions: a column, which is Inertsil ODS-3V manufactured by GL Sciences Inc., and has an inner diameter of 4.6 mm, a length of 15 cm, and a particle diameter of […] was used. […] The measurement wavelength used was 294 nm.

[3] = Test of storage stability against light (D65 fluorescent lamp irradiation)

Compound | melting point | SOLUBILITY [1] [mg/mL] | amount of remaining unaltered crystals, INITIAL [2] | change in the amount of unaltered crystals at 4 weeks (in words) ([2]; 40° C./75% RH) | amount of remaining unaltered crystals, 4 WEEKS CLOSED CONDITION ([2]; 40° C./75% RH) | amount of remaining unaltered crystals, 4 WEEKS OPEN CONDITION ([2]; 40° C./75% RH) | amount of remaining unaltered crystals, total irradiation amount 110,000 lx·hrs [3] | change in the amount of unaltered crystals at 110,000 lx·hrs (in words) [3] | amount of remaining unaltered crystals, total irradiation amount 220,000 lx·hrs [3] | amount of remaining unaltered crystals, total irradiation amount 530,000 lx·hrs [3] | amount of remaining unaltered crystals, total irradiation amount 860,000 lx·hrs [3] | amount of remaining unaltered crystals, total irradiation amount 1,280,000 lx·hrs ([3]; 1,280,000 lx·hrs) | change in the amount of crystals at 1,280,000 lx·hrs (in words) ([3]; 1,280,000 lx·hrs) | amount of remaining unaltered crystals, INITIAL [3] | change in the amount of unaltered crystals at 2 weeks (in words) ([2]; 40° C./75% RH, 2 weeks) | amount of remaining unaltered crystals, 2 WEEKS CLOSED CONDITION ([2]; 40° C./75% RH, 2 weeks) | amount of remaining unaltered crystals, 2 WEEKS OPEN CONDITION ([2]; 40° C./75% RH, 2 weeks) | SOLUBILITY ([1]; Methanesulfonate Salt) [mg/mL] | SOLUBILITY ([1]; water, SOLUBILITY) [mg/mL] | reduction in the amount of crystals at 1,280,000 lx·hrs ([3]; 1,280,000 lx·hrs) [%]
COc1c(N2C[C@H](CNC3CC3)[C@H](F)C2)c(F)cc2c(=O)c(C(=O)O)cn(CCF)c12.CS(=O)(=O)O (hydrate or solvate) [CRYSTALS OF METHANESULFONATE SALT, 7-{(3S,4S)-3-[(cyclopropylamino)methyl]-4-fluoropyrrolidine-1-yl}-6-fluoro-1-(2-fluoroethyl)-8-methoxy-4-oxo-1,4-dihydroquinoline-3-carboxylic Acid Methanesulfonate Salt] | 207 to 210 °C (dec.) |  |  |  |  |  |  |  |  |  |  |  |  |  |  |  |  |  |  | 
COc1c(N2C[C@H](CNC3CC3)[C@H](F)C2)c(F)cc2c(=O)c(C(=O)O)cn(CCF)c12.Cl [CRYSTALS A, 7-{(3S,4S)-3-[(cyclopropylamino)methyl]-4-fluoropyrrolidine-1-yl}-6-fluoro-1-(2-fluoroethyl)-8-methoxy-4-oxo-1,4-dihydroquinoline-3-carboxylic Acid Hydrochloride Salt (Crystals A)] |  | >10 | 99.52 | no change | 99.52 | 99.51 | 97.74 | almost no change | 97.43 | 97.32 | 96.32 | 91.33 | found to decrease | 98.68 |  |  |  |  |  | 
COc1c(N2C[C@H](CNC3CC3)[C@H](F)C2)c(F)cc2c(=O)c(C(=O)O)cn(CCF)c12.Cl.O [CRYSTALS B, 7-{(3S,4S)-3-[(cyclopropylamino)methyl]-4-fluoropyrrolidine-1-yl}-6-fluoro-1-(2-fluoroethyl)-8-methoxy-4-oxo-1,4-dihydroquinoline-3-carboxylic Acid Hydrochloride Salt Hydrate (Crystals B)] |  | >10 | 99.59 | no change | 99.65 | 99.64 |  |  |  |  |  |  |  |  |  |  |  |  |  | 
COc1c(N2C[C@H](CNC3CC3)[C@H](F)C2)c(F)cc2c(=O)c(C(=O)O)cn(CCF)c12.Cl.O [CRYSTALS C, 7-{(3S,4S)-3-[(cyclopropylamino)methyl]-4-fluoropyrrolidine-1-yl}-6-fluoro-1-(2-fluoroethyl)-8-methoxy-4-oxo-1,4-dihydroquinoline-3-carboxylic Acid Hydrochloride Salt Hydrate (Crystals C)] |  |  | 99.75 |  |  |  |  |  |  |  |  |  |  |  | found to decrease | 99.37 | 99.47 |  |  | 
COc1c(N2C[C@H](CNC3CC3)[C@H](F)C2)c(F)cc2c(=O)c(C(=O)O)cn(CCF)c12.CS(=O)(=O)O [CRYSTALS OF METHANESULFONATE SALT, 7-{(3S,4S)-3-[(cyclopropylamino)methyl]-4-fluoropyrrolidine-1-yl}-6-fluoro-1-(2-fluoroethyl)-8-methoxy-4-oxo-1,4-dihydroquinoline-3-carboxylic Acid Methanesulfonate Salt] |  |  | 95.18 | no change | 96.09 | 95.89 | 98.01 | almost no change | 97.5 | 96.91 | 95.37 | 95.11 | found to decrease | 98.83 |  |  |  | >10 | ≥ 10 | 
COc1c(N2C[C@H](CNC3CC3)[C@H](F)C2)c(F)cc2c(=O)c(C(=O)O)cn(CCF)c12 [FREE CRYSTALS, 7-{(3S,4S)-3-[(cyclopropylamino)methyl]-4-fluoropyrrolidine-1-yl}-6-fluoro-1-(2-fluoroethyl)-8-methoxy-4-oxo-1,4-dihydroquinoline-3-carboxylic acid] |  | <1 | 95.18 |  | 95.00 | 95.35 | 77.71 | significantly decrease | 75.31 | 66.34 | 49.82 | 44.85 |  | 96.12 |  | 95.13 | 95.27 |  | ≤ 1 | ≥ 50
